One series deals with MDA-MB-435. The series can be described thus: SRB cytotoxicity screening assay (Breast Cancer).
A further series deals with SK-MEL-5. The series can be described thus: SRB cytotoxicity screening assay (Melanoma).
The next series deals with SK-BR-3. The series can be described thus: SRB cytotoxicity screening assay (Breast Cancer).
The next series relates to MAXF 401. Briefly: SRB cytotoxicity screening assay (Breast Cancer). The class given is cell-based. Conditions: MAXF 401 (Breast Cancer), 48 hour incubation.
A further series relates to SK-MEL-28. The series can be described thus: SRB cytotoxicity screening assay (Melanoma).
For another series, the system named is SNB-75. Briefly: SRB cytotoxicity screening assay (CNS Cancer).
The test system of another series is SF-268. Briefly: SRB cytotoxicity screening assay (CNS Cancer).
The test system of a further series is SF-295. Briefly: SRB cytotoxicity screening assay (CNS Cancer).
For the next series, the system named is SK-OV-3. The series can be described thus: SRB cytotoxicity screening assay (Ovarian).
A further series concerns MDR+ cell line. Briefly: Multidrug resistant cell line screening (MDR ratio). In kind it is cell-based. From the text: The compound of the present invention was further tested on multidrug resistant cell lines. The resistance of cancer cells to multiple chemotherapeutic drugs which are structurally unrelated has been termed “multidrug resistance.” In the past several years, several mechanisms of multidrug resistance have been described, including the expression of a cell surface multidrug efflux pump (P-glycoprotein or the multidrug transporter), altered glutathione metabolism, reduced activity of topoisomerase II, and various less clearly defined changes in cellular proteins. Because of evidence that expression of P-glycoprotein is associated with drug-resistance in cancer, P-glycoprotein has been studied extensively from the point of view of its biochemistry and mechanism of action in order to develop inhibitors which can be used clinically to reverse drug resistance of cancers in patients. The clinical significance of the other mechanisms of multidrug resistance are less well-established, but many model systems indicate that they may contribute to clinical resistance.

The test system of a further series is MDA-MB-468. The series can be described thus: SRB cytotoxicity screening assay (Breast Cancer).
Another series relates to CAKI-1. The series can be described thus: SRB cytotoxicity screening assay (Renal Cancer).
Another series has as its system ACHN. The series can be described thus: SRB cytotoxicity screening assay (Renal Cancer).
In the next series the test system is NCI-H23. Briefly: SRB cytotoxicity screening assay (Non-Small Cell Lung Cancer).
For the next series, the system named is CCRF-CEM. The note with it: human, 48 h.
Series [1] relates to cell line panel (60 lines, nine disease-related subpanels).

As for `CCCCCC(=O)O[C@H]1C[C@H]2OC[C@@]2(OC(C)=O)[C@H]2[C@H](OC(=O)c3ccccc3)[C@]3(O)C[C@H](OC(=O)[C@H](O)[C@@H](NC(=O)c4ccccc4)c4ccccc4)C(C)=C([C@@H](OC(C)=O)C(=O)[C@]12C)C3(C)C` [7-hexanoyltaxol], the GI50 is below 10 nM in the series with MDA-MB-435 (Homo sapiens, MDA-MB-435, 48 h, read-out: Log10 GI50 (converted)); below 10 nM with SK-MEL-5 (Homo sapiens, SK-MEL-5, 48 h, read-out: Log10 GI50 (converted)); below 10 nM in the series with SK-BR-3 (Homo sapiens, SK-BR-3, 48 h, read-out: Log10 GI50 (converted)); below 10 nM in the series on MAXF 401 (Homo sapiens, MAXF401, PG=+50, read-out: Log10 GI50 (converted)); below 10 nM in the series on SK-MEL-28 (Homo sapiens, SK-MEL-28, 48 h, read-out: Log10 GI50 (converted)); below 10 nM in the series with SNB-75 (Homo sapiens, SNB-75, 48 h, read-out: Log10 GI50 (converted)). Moreover, the GI50 is below 10 nM in the series with SF-268 (Homo sapiens, SF-268, 48 h, read-out: Log10 GI50 (converted)); below 10 nM in the series with SF-295 (Homo sapiens, SF-295, 48 h, read-out: Log10 GI50 (converted)); below 10 nM with SK-OV-3 (Homo sapiens, SK-OV-3, 48 h, read-out: Log10 GI50 (converted)); below 10 nM in the series on MDA-MB-468 (Homo sapiens, MDA-MB-468, 48 h, read-out: Log10 GI50 (converted)); 263 nM in the series with CAKI-1 (Homo sapiens, CAKI-1, 48 h, read-out: Log10 GI50 (converted)); 95.5 nM in the series with ACHN (Homo sapiens, ACHN, 48 h, read-out: Log10 GI50 (converted)). Further, the GI50 in the series with NCI-H23 (Homo sapiens, NCI-H23, 48 h, read-out: Log10 GI50 (converted)) is below 10 nM. The CC50 in the series on MDA-MB-435 (Homo sapiens, MDA-MB-435, 48 h, read-out: Log10 LC50 (converted)) was below 10 nM; in the series on SK-MEL-5 (Homo sapiens, SK-MEL-5, 48 h, read-out: Log10 LC50 (converted)), above 100000 nM; in the series with SK-BR-3 (Homo sapiens, SK-BR-3, 48 h, read-out: Log10 LC50 (converted)), above 100000 nM; with SK-MEL-28 (Homo sapiens, SK-MEL-28, 48 h, read-out: Log10 LC50 (converted)), above 100000 nM; with SNB-75 (Homo sapiens, SNB-75, 48 h, read-out: Log10 LC50 (converted)), above 100000 nM; in the series with SF-268 (Homo sapiens, SF-268, 48 h, read-out: Log10 LC50 (converted)) it was above 100000 nM. Further, the CC50 with SF-295 (Homo sapiens, SF-295, 48 h, read-out: Log10 LC50 (converted)) is above 100000 nM; in the series with SK-OV-3 (Homo sapiens, SK-OV-3, 48 h, read-out: Log10 LC50 (converted)), 91200 nM; in the series with MDA-MB-468 (Homo sapiens, MDA-MB-468, 48 h, read-out: Log10 LC50 (converted)) it was above 100000 nM; in the series on CAKI-1 (Homo sapiens, CAKI-1, 48 h, read-out: Log10 LC50 (converted)) it was above 100000 nM; in the series with ACHN (Homo sapiens, ACHN, 48 h, read-out: Log10 LC50 (converted)), above 100000 nM; in the series on NCI-H23 (Homo sapiens, NCI-H23, 48 h, read-out: Log10 LC50 (converted)) it was 45700 nM. Further, the “Log10 TGI” value in the series with MDA-MB-435 (MDA-MB-435 (Breast Cancer), PG=0, 48 hour incubation) was below −8.00 molar; in the series with SK-MEL-5 (SK-MEL-5 (Melanoma), PG=0, 48 hour incubation) it was −4.56 molar; with SK-BR-3 (SK-BR-3 (Breast Cancer), PG=0, 48 hour incubation) it was −6.04 molar; with MAXF 401 (PG=0), below −8.00 molar; in the series on SK-MEL-28 (SK-MEL-28 (Melanoma), PG=0, 48 hour incubation), −4.33 molar; in the series with SNB-75 (SNB-75 (CNS Cancer), PG=0, 48 hour incubation) it was −7.41 molar. Also, the “Log10 TGI” value in the series on SF-268 (SF-268 (CNS Cancer), PG=0, 48 hour incubation) was −4.95 molar; in the series with SF-295 (SF-295 (CNS Cancer), PG=0, 48 hour incubation), −6.41 molar; with SK-OV-3 (SK-OV-3 (Ovarian), PG=0, 48 hour incubation), −4.84 molar; in the series with MDA-MB-468 (MDA-MB-468 (Breast Cancer), PG=0, 48 hour incubation), −6.26 molar; in the series with CAKI-1 (CAKI-1 (Renal Cancer), PG=0, 48 hour incubation), −4.52 molar; in the series with ACHN (ACHN (Renal Cancer), PG=0, 48 hour incubation), above −4.00 molar. The “Log10 TGI” value with NCI-H23 (NCI-H23 (Non-Small Cell Lung Cancer), PG=0, 48 hour incubation) was −4.86 molar. Besides, in the series with MDR+ cell line (higher numbers = less effective vs. MDR cells), the “MDR (ratio of two IC50 values, numerator is an MDR+ cell line)” value is on record as 1. In the series with MDR+ cell line (multidrug resistant cell lines), the “effectiveness against multidrug resistant cell lines compared with paclitaxel” value is “vastly more effective than paclitaxel”.
For `CC(=O)O[C@H]1C(=O)[C@@]2(C)[C@H]([C@H](OC(=O)c3ccccc3)[C@]3(O)C[C@H](OC(=O)[C@H](O)[C@@H](NC(=O)c4ccccc4)c4ccccc4)C(C)=C1C3(C)C)[C@]1(OC(C)=O)CO[C@@H]1C[C@@H]2O` [Paclitaxel, paclitaxel, reference compound], the “Log10 LC50” value in the series on CCRF-CEM is reported as above −4.00 molar. The “Log10 LC50, Range” value in series [1] is 0.45.

In general, GI50 refers to the concentration giving 50% growth inhibition.

(Values after patent publication US6753345B2, “7-hexanolytaxol and methods for preparing the same” (Hauser, Inc., priority 1998, dated 2004).)
